# ChEMBL document CHEMBL1201862, “PubChem BioAssay data set” (2004)
#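 The compound was tested at five concentrations on cells cultured in 96-well plates, with a 48-hour exposure period. GI50: concentration for 50% inhibition of growth.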 Activity calls are given as the source filed them. Rule as the data show it: active = GI50 up to about 1.1 µM and inactive = higher.
# Legend:
# Experiment in all cases: NCI-60 cell line screen, 48 h
# [1] = tested on: M14
# [2] = tested on: A498
# [3] = tested on: SF-268
# [4] = tested on: SN12C
# [5] = tested on: KM-20L2
# [6] = tested on: LXFL 529
# [7] = tested on: NCI-H522
# [8] = tested on: SF-295
# [9] = tested on: HOP-18
# [10] = tested on: U-251
# [11] = tested on: SW-620
# [12] = tested on: OVCAR-5
# [13] = tested on: SNB-78
# [14] = tested on: DLD-1
# [15] = tested on: K562
# [16] = tested on: CCRF-CEM
# [17] = tested on: NCI-H460
# [18] = tested on: MOLT-4
# [19] = tested on: HL-60
# [20] = tested on: RPMI-8226
# [21] = tested on: HOP-62
# [22] = tested on: ACHN
# [23] = tested on: HCT-15
# [24] = tested on: KM12
# [25] = tested on: SK-MEL-28
# [26] = tested on: SNB-19
# [27] = tested on: HCT-116
# [28] = tested on: NCI-H23
# [29] = tested on: UACC-62
# [30] = tested on: HCC 2998
# [31] = tested on: RXF 631
# [32] = tested on: DMS-273
# [33] = tested on: A549
# [34] = tested on: OVCAR-8
# [35] = tested on: SK-MEL-2
# [36] = tested on: COLO 205
# [37] = tested on: HOP-92
# [38] = tested on: DMS-114
# [39] = tested on: UO-31
# [40] = tested on: SF-539
# [41] = tested on: Malme-3M
# [42] = tested on: OVCAR-4
# [43] = tested on: XF498
# [44] = tested on: CAKI-1
# [45] = tested on: SNB-75
# [46] = tested on: NCI-H226
# [47] = tested on: IGROV-1
# [48] = tested on: 786-0
# [49] = tested on: TK-10
# [50] = tested on: EKVX
# [51] = tested on: HT-29
# [52] = tested on: SK-MEL-5
# [53] = tested on: M19-MEL
# [54] = tested on: UACC-257
# [55] = tested on: SK-OV-3
# [56] = tested on: OVCAR-3
# [57] = tested on: LOX IMVI
# [58] = tested on: RXF 393
# [59] = tested on: SR
smiles,measurement,setting,value
C/C(CC(=O)CCC(=O)Nc1cccc(C(F)(F)F)c1)=N\NC(=O)NN,GI50,[1],> 100 µM (inactive)
same,GI50,[2],> 100 µM (inactive)
same,GI50,[3],> 100 µM (inactive)
same,GI50,[4],> 100 µM (inactive)
same,GI50,[5],> 100 µM (inactive)
same,GI50,[6],> 100 µM (inactive)
same,GI50,[7],> 100 µM (inactive)
same,GI50,[8],> 100 µM (inactive)
same,GI50,[9],> 100 µM (inactive)
same,GI50,[10],> 100 µM (inactive)
same,GI50,[11],> 100 µM (inactive)
same,GI50,[12],> 100 µM (inactive)
same,GI50,[13],> 100 µM (inactive)
same,GI50,[14],> 100 µM (inactive)
same,GI50,[15],> 100 µM (inactive)
same,GI50,[16],> 100 µM (inactive)
same,GI50,[17],> 100 µM (inactive)
same,GI50,[18],> 100 µM (inactive)
same,GI50,[19],> 100 µM (inactive)
same,GI50,[20],> 100 µM (inactive)
same,GI50,[21],> 100 µM (inactive)
same,GI50,[22],> 100 µM (inactive)
same,GI50,[23],> 100 µM
same,GI50,[24],> 100 µM (inactive)
same,GI50,[25],> 100 µM (inactive)
same,GI50,[26],> 100 µM (inactive)
same,GI50,[27],> 100 µM (inactive)
same,GI50,[28],> 100 µM (inactive)
same,GI50,[29],> 100 µM (inactive)
same,GI50,[30],> 100 µM (inactive)
same,GI50,[31],> 100 µM (inactive)
same,GI50,[32],> 100 µM (inactive)
same,GI50,[33],> 100 µM (inactive)
same,GI50,[34],> 100 µM (inactive)
same,GI50,[35],> 100 µM (inactive)
same,GI50,[36],> 100 µM (inactive)
same,GI50,[37],> 100 µM (inactive)
same,GI50,[38],> 100 µM (inactive)
same,GI50,[39],> 100 µM (inactive)
same,GI50,[40],> 100 µM (inactive)
same,GI50,[41],> 100 µM (inactive)
same,GI50,[42],> 100 µM (inactive)
same,GI50,[43],> 100 µM (inactive)
same,GI50,[44],> 100 µM (inactive)
same,GI50,[45],> 100 µM (inactive)
same,GI50,[46],> 100 µM (inactive)
same,GI50,[47],> 100 µM (inactive)
same,GI50,[48],> 100 µM (inactive)
same,GI50,[49],> 100 µM (inactive)
same,GI50,[50],> 100 µM (inactive)
same,GI50,[51],> 100 µM (inactive)
same,GI50,[52],> 100 µM (inactive)
same,GI50,[53],> 100 µM (inactive)
same,GI50,[54],> 100 µM (inactive)
same,GI50,[55],> 100 µM (inactive)
same,GI50,[56],> 100 µM (inactive)
COc1ccc(C2=NOP(c3ccccc3)(c3ccccc3)(c3ccccc3)C2)cc1,GI50,[1],10.8 µM (inactive)
same,GI50,[2],33.3 µM (inactive)
same,GI50,[3],40.4 µM (inactive)
same,GI50,[4],29.6 µM (inactive)
same,GI50,[5],10 µM (inactive)
same,GI50,[6],5.57 µM (inactive)
same,GI50,[7],7.91 µM (inactive)
same,GI50,[8],2.92 µM (inactive)
same,GI50,[9],24.9 µM (inactive)
same,GI50,[10],23.5 µM (inactive)
same,GI50,[11],16.2 µM (inactive)
same,GI50,[12],4.45 µM (inactive)
same,GI50,[13],36.5 µM (inactive)
same,GI50,[14],20.8 µM (inactive)
same,GI50,[15],4.25 µM (inactive)
same,GI50,[16],7.98 µM (inactive)
same,GI50,[17],9.31 µM (inactive)
same,GI50,[18],7.43 µM (inactive)
same,GI50,[19],2.13 µM (inactive)
same,GI50,[20],10.6 µM (inactive)
same,GI50,[21],20.8 µM (inactive)
same,GI50,[22],29.3 µM (inactive)
same,GI50,[23],20.4 µM
same,GI50,[24],34.1 µM (inactive)
same,GI50,[25],27.9 µM (inactive)
same,GI50,[26],51.4 µM (inactive)
same,GI50,[27],2.39 µM (inactive)
same,GI50,[28],19.1 µM (inactive)
same,GI50,[29],13.8 µM (inactive)
same,GI50,[30],20.9 µM (inactive)
same,GI50,[31],22.4 µM (inactive)
same,GI50,[32],16.6 µM (inactive)
same,GI50,[33],22.5 µM (inactive)
same,GI50,[57],10.1 µM (inactive)
same,GI50,[34],14.8 µM (inactive)
same,GI50,[35],7.08 µM (inactive)
same,GI50,[36],9.64 µM (inactive)
same,GI50,[37],6.46 µM (inactive)
same,GI50,[38],8.61 µM (inactive)
same,GI50,[39],12.9 µM (inactive)
same,GI50,[40],29.7 µM (inactive)
same,GI50,[41],21.9 µM (inactive)
same,GI50,[42],29.6 µM (inactive)
same,GI50,[43],20.7 µM (inactive)
same,GI50,[44],25.1 µM (inactive)
same,GI50,[45],33 µM (inactive)
same,GI50,[46],25.9 µM (inactive)
same,GI50,[58],28.9 µM (inactive)
same,GI50,[47],3.35 µM (inactive)
same,GI50,[48],21.2 µM (inactive)
same,GI50,[49],> 65.6 µM (inactive)
same,GI50,[59],7.46 µM (inactive)
same,GI50,[50],63.1 µM (inactive)
same,GI50,[51],1.55 µM (inactive)
same,GI50,[52],13.3 µM (inactive)
same,GI50,[53],21.7 µM (inactive)
same,GI50,[54],28.8 µM (inactive)
same,GI50,[55],43.6 µM (inactive)
same,GI50,[56],21.7 µM (inactive)
NC1=NN(c2ccccc2)C(=O)C1C(=O)C(=O)Nc1cccc(C(F)(F)F)c1 (stereo not given),GI50,[1],> 100 µM (inactive)
same,GI50,[2],> 100 µM (inactive)
same,GI50,[3],> 100 µM (inactive)
same,GI50,[4],> 100 µM (inactive)
same,GI50,[5],> 100 µM (inactive)
same,GI50,[6],67.1 µM (inactive)
same,GI50,[7],> 100 µM (inactive)
same,GI50,[8],> 100 µM (inactive)
same,GI50,[9],67.9 µM (inactive)
same,GI50,[10],> 100 µM (inactive)
same,GI50,[11],> 100 µM (inactive)
same,GI50,[12],> 100 µM (inactive)
same,GI50,[13],> 100 µM (inactive)
same,GI50,[14],> 100 µM (inactive)
same,GI50,[15],86.1 µM (inactive)
same,GI50,[16],> 100 µM (inactive)
same,GI50,[17],> 100 µM (inactive)
same,GI50,[18],> 100 µM (inactive)
same,GI50,[19],89.3 µM (inactive)
same,GI50,[20],> 100 µM (inactive)
same,GI50,[21],> 100 µM (inactive)
same,GI50,[22],> 100 µM (inactive)
same,GI50,[23],> 100 µM
same,GI50,[24],> 100 µM (inactive)
same,GI50,[26],> 100 µM (inactive)
same,GI50,[27],> 100 µM (inactive)
same,GI50,[28],> 100 µM (inactive)
same,GI50,[29],> 100 µM (inactive)
same,GI50,[30],> 100 µM (inactive)
same,GI50,[31],> 100 µM (inactive)
same,GI50,[32],> 100 µM (inactive)
same,GI50,[33],> 100 µM (inactive)
same,GI50,[57],> 100 µM (inactive)
same,GI50,[34],> 100 µM (inactive)
same,GI50,[35],> 100 µM (inactive)
same,GI50,[36],> 100 µM (inactive)
same,GI50,[37],23.7 µM (inactive)
same,GI50,[38],> 100 µM (inactive)
same,GI50,[39],> 100 µM (inactive)
same,GI50,[40],> 100 µM (inactive)
same,GI50,[41],> 100 µM (inactive)
same,GI50,[42],> 100 µM (inactive)
same,GI50,[43],> 100 µM (inactive)
same,GI50,[44],> 100 µM (inactive)
same,GI50,[46],> 100 µM (inactive)
same,GI50,[47],> 100 µM (inactive)
same,GI50,[48],> 100 µM (inactive)
same,GI50,[49],> 100 µM (inactive)
same,GI50,[50],> 100 µM (inactive)
same,GI50,[51],> 100 µM (inactive)
same,GI50,[52],> 100 µM (inactive)
same,GI50,[53],> 100 µM (inactive)
same,GI50,[54],> 100 µM (inactive)
same,GI50,[55],> 100 µM (inactive)
same,GI50,[56],> 100 µM (inactive)
